Tests used:
S. cerevisiae PNY0614 = test: Glucose utilization rate under non-growing conditions in buffer; type: cell-based, Saccharomyces cerevisiae; settings: PNY0614, 20 g/L isobutanol
Experimental: (§1) Isobutanol production may or may not be coupled to growth. Therefore we measured the glucose consumption rates under non-growing conditions using three different pH buffers.
(§2) Glucose consumption rates were determined in phosphate buffer pH 6.5 as outlined by Diderich, J. A., et al., Microbiology, 1999, 145 p. 3447-54. We also determined the glucose consumption rates at pH 5.25 and pH 4.0 using MES buffer.
(§3) Cells were grown overnight at 30° C. in YPD (125 ml in a 500 ml flask). Cells were centrifuged and resuspended in buffer (0.1M phosphate buffer pH 6.0 or 0.1M MES buffer pH 5.25 or 0.1M MES buffer pH 4.0), washed one time, and then resuspended such that each cell suspension had approximately 16 OD or 160 million cell/ml. 10 ml of these stock cells were transferred to flasks containing 10 ml of the corresponding buffer containing 40 g/L glucose and varying concentrations of isobutanol. At various times samples (500 to 700 ul) were transferred to a tube containing an equal volume of 10% TCA. Samples were centrifuged and glucose determined in the YSI glucose analyzer. Glucose consumption rates were determined by plotting the amount of glucose consumed over time.

S. cerevisiae PNY0569 = test: as above; type: cell-based, Saccharomyces cerevisiae; settings: PNY0569, 20 g/L isobutanol
Experimental: as §1, §2, §3

S. cerevisiae PNY0602 = test: as above; type: cell-based, Saccharomyces cerevisiae; settings: PNY0602, 20 g/L isobutanol
Experimental: as §1, §2, §3

[1] = tested on: Saccharomyces cerevisiae BY4743; test: 24 hour survival (CFU) at low and high cell density; type: cell-based
Experimental: Saccharomyces cerevisiae BY4743 (ATCC 201390) was plated from a freezer vial onto YPD agar (Teknova, Hollister, Calif.; Cat. #Y1000) and incubated overnight at 30° C. Cells from the YPD plate were inoculated into a 25 ml pre-culture of YPD broth (Teknova; Cat. #Y5000) with an initial OD600 of 0.06 to 0.08. The pre-culture was grown for 7 hours in an aerobic shaker at 30° C. An aliquot of the pre-culture was inoculated into 200 ml of YPD broth, with an initial OD600 of 0.06 to 0.08, and this culture was incubated with aeration at 30° C. for approximately 17 hours. The optical density of the culture was measured, the culture was centrifuged and the cells were resuspended to yield an OD600 of 5 in fresh YPD broth. This is referred to as a high cell density (HCD) culture. […] This is referred to as a low the cell density (LCD) culture. These cultures were incubated at 30° C. with shaking for 30 minutes for an acclimation period. At the end of the 30 minute acclimation period, the OD600 was measured. 5 ml of low or high cell density culture was dispensed to 15 ml conical tubes which contained different concentrations of the alcohol to be tested. A control tube included no alcohol. The tubes were placed in a rotary drum at 30° C. and incubated for 24 hours. The time of addition of cells was referred to as “time 0”. […] Colony forming units (CFUs) were determined on YPD plates at time 0 for the control and at 24 hours for each of the cultures, including the control culture, using standard microbiological methods. […] Colonies were counted after 48 hours, and CFUs/ml were calculated. At time 0, the low cell density cultures had about 4.8×10^5 CFUs/ml, and the high cell density cultures had about 5.4×10^7 CFUs/ml.

## CC(C)CO [Isobutanol, isobutanol]
S. cerevisiae PNY0614; pH 4, non-growing
  Glucose Utilization (g/gdcw/h): 0.9 g/gdcw/h
S. cerevisiae PNY0614; pH 5.25, non-growing
  Glucose Utilization (g/gdcw/h): 1.1 g/gdcw/h
S. cerevisiae PNY0614; pH 6.5, non-growing
  Glucose Utilization (g/gdcw/h): 0.7 g/gdcw/h
S. cerevisiae PNY0569; pH 4, non-growing
  Glucose Utilization (g/gdcw/h): 0.7 g/gdcw/h
S. cerevisiae PNY0569; pH 5.25, non-growing
  Glucose Utilization (g/gdcw/h): 0.8 g/gdcw/h
S. cerevisiae PNY0569; pH 6.5, non-growing
  Glucose Utilization (g/gdcw/h): 0.6 g/gdcw/h
S. cerevisiae PNY0602; pH 4, non-growing
  Glucose Utilization (g/gdcw/h): 0.9 g/gdcw/h
S. cerevisiae PNY0602; pH 5.25, non-growing
  Glucose Utilization (g/gdcw/h): 1.1 g/gdcw/h
S. cerevisiae PNY0602; pH 6.5, non-growing
  Glucose Utilization (g/gdcw/h): 0.7 g/gdcw/h
[1]; 1.0% (w/v) alcohol, high cell density OD600 5
  Percent Survival HCD (%): 77.8%
[1]; 1.0% (w/v) alcohol, low cell density OD600 0.05
  Percent Survival LCD (%): 0.6%
[1]; 1.5% (w/v) alcohol, high cell density
  Percent Survival HCD (%): 45.1%
[1]; 1.5% (w/v) alcohol, low cell density
  Percent Survival LCD (%): 0.1%
[1]; 2.5% (w/v) alcohol, high cell density
  Percent Survival HCD (%): <0.001%
[1]; 2.5% (w/v) alcohol, low cell density
  Percent Survival LCD (%): <0.001%
